One data set relates to L. monoctyogenes. In words: PET in L. monoctyogenes myositis model. It is filed as in vivo, mouse. The source says:
Neither M. marinum nor the L. monoctyogenes induced ^64Cu-GRIP B uptake in live bacterial abscesses compared to heat killed controls.

Another data set addresses T1, secreted GZMB (Mus musculus, UniProt P04187).
T1 construct: from tissue; host or cells: live wild type mice; lungs and other organs after intratracheal LPS
T1 sequence (P04187 21-247): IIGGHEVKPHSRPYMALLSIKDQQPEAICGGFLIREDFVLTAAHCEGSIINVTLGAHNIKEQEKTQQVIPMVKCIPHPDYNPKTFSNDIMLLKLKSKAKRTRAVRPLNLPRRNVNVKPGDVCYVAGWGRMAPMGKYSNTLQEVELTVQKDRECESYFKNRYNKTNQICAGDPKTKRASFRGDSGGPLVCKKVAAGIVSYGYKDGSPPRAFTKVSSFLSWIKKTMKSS
The data set is described as follows: PET/CT and biodistribution after intratracheal LPS instillation. It is filed as in vivo. On the procedure:
Though not well defined, non-cytotoxic functions for secreted GZMB have been proposed in several physiological processes, for example inflammation. To test if ^64Cu-GRIP B can localize potentially pathogenic reservoirs of secreted GZMB due to inflammation, ^64Cu-GRIP B PET/CT was performed on wild type mice that had received intratracheal instillations of lipopolysaccharide (LPS). PET/CT was performed four days after the instillation, a time point at which T cell recruitment to the lungs has occurred. […] Since 3 mg/kg LPS can trigger systemwide T cell activation, radiotracer uptake was examined in a larger panel of mouse organs. […] Remarkably, the systemwide impact on T cell activation due to the intratracheal instillation of LPS was also visually obvious by comparing maximum intensity projections between treatment arms (FIG. 6, panel E).

Another data set relates to subcutaneous CT26 tumors. In words: PET/CT, biodistribution and autoradiography in mice bearing CT26 tumors treated with vehicle or CPI. How it is done:
(§1) The effect of immunomodulatory therapies on ^64Cu-GRIP B biodistribution was next evaluated in mice bearing subcutaneous CT26 tumors, a mouse colorectal cancer cell line that responds to immunomodulatory therapy. Mice were treated with three intraperitoneal infusions of vehicle or anti-PD1 plus anti-CTLA4 CPIs over 11 days. The radiotracer was injected on day 14, and tumor uptake was monitored over several time points out to 24 hours post injection on PET.
(§2) A biodistribution study at 2 hours post injection was performed to determine relative changes in tracer uptake between tissues in the vehicle and treated groups.
(§3) All animal experiments were approved by the Institutional Animal Care and Use Committee at UCSF. Four to six week old male or female balb/c mice and C57BL6/J mice were purchased from Jackson Laboratory and housed with free access to the water and food. All mice were inoculated with 5×10^6 CT26, MC38, or EMT6 cells in a mixture of media and Matrigel (Corning) (v/v 1:1) subcutaneously into the left shoulder. Anti-mouse PD-1 (CD279) (BE0146) and anti-mouse CTLA-4 (CD152) (BE0164) were purchased from Bio X Cell and stored at 4° C. during the treatment studies. Mice bearing subcutaneous tumors were received anti-mouse CTLA-4 (200 ug) or/and anti-mouse PD-1 (200 ug) and as a combination therapy or PBS as the vehicle on days 5, 8, 11 following the tumor inoculation. Mice were weighed and the tumor volume were measured with calipers on the same day of the treatment. On day 14, all mice were used for PET/CT or BioD studies.
(§4) ^64Cu-L-GRIP B or ^64Cu-D-GRIP B (˜100 μCi/mouse) in 100-150 μL of 10% DMSO and 10% Tween 80 in saline was injected via tail vein. After a period of uptake time, mice were anesthetized with isoflurane (˜2%), and imaged with a microPET/CT scanner (Inveon, Siemens). For static imaging, mice were scanned for 30 min for PET data acquisition and 10 min for CT data acquisition. For the dynamic acquisitions, the mice were anesthetized, positioned on the scanner bed, and injected intravenously with radiotracer. The dynamic acquisition was performed for scanned for 60 min followed by a 10 min CT acquisition.
(§5) At dedicated time points post radiotracer injection, mice were euthanized with CO2(g) asphyxiation, and the blood was collected by direct cardiac puncture. Tissues were harvested, weighed and counted on a gamma counter (Hidex). The amount of radioactivity in the tissues was determined by comparison with a standard of known activity. The samples were decay-corrected and expressed as the percentage of the injected dose/weight of the harvested tissues (% ID/g).
(§6) Tumors or designated tissue were flash frozen in OCT in dry ice. The tissues were sectioned with a microtome (Leica) into slices with 10-20 um thickness and directly mounted on glass slides (VWR). GE Storage Phosphor Screen were exposed by such slides with radioactive tissue. After 10 half-live of copper-64, the screen was developed on a phosphorimager (Typhoon 9400). The images were further analyzed by using Fiji software.

Assay in data set [1]: as above
To be noted: both, mouse, in vivo, iv, total radioactivity. On the procedure:
as §1, §2, §3, §4, §5, §6

The next data set concerns CT26 tumors. In words: Biodistribution in germline GZMB knockout mice bearing CT26 tumors, vehicle or CPI. The class given is in vivo, mouse. On the procedure: Lastly, to confirm that GZMB is responsible for post treatment changes in ^64Cu-GRIP B biodistribution, germline homozygous GZMB knockout mice were inoculated with CT26 tumors and the relative biodistribution of ^64Cu-L-GRIP B in mice was assessed after treatment with vehicle or CPIs.
To confirm this, post treatment changes in tumoral uptake of ^64Cu-GRIP B were assessed for correlation with antitumor effects.

In a further data set the test system is K. pneumoniae. In words: PET in K. pneumoniae myositis model. The class given is in vivo, mouse. From the text: (§7) Performing additional myositis studies with other bacterial strains yielded unexpected and variable granzyme “responses” on PET. […] In both mouse cohorts, radiotracer uptake in the treated muscles was higher than in the normal muscle.
Another data set concerns S. aureus. The data set is described as follows: PET in S. aureus myositis model. It is filed as in vivo, mouse. The source says:
Granzyme B responses to other bacterial strains has also been tested. Live or heat killed S. aureus were implanted into the deltoids of mice to understand immune responses on PET. […] One possibility for the difference in response is that granzyme B is not uniformly employed to attack all pathogens, and the immune cells may customize their granzyme response based on the features of the pathogen.

The subject of another data set is P. aeruginosa. The data set is described as follows: PET in P. aeruginosa myositis model. It is filed as in vivo, mouse.
Source text: as §7

Where [2] appears, read: biodistribution at 2 hours post injection.

Peptide text beside a SMILES is read from it. * marks the point of attachment. DOTA = O=C(O)CN1CCN(CC(=O)O)CCN(CC(=O)*)CCN(CC(=O)O)CC1; Ahx = NCCCCCC(=O)O

This is an account of results in US20240238459A1, “Granzyme-Activatable Membrane-Interacting Peptides and Methods of Use” (priority 2021, published 2024).

`CC[C@H](C)[C@H](NC(=O)[C@H](CCCCN)NC(=O)CNC(=O)[C@H](CC(C)C)NC(=O)[C@H](Cc1ccccc1)NC(=O)[C@H](CCCCN)NC(=O)[C@H](CO)NC(=O)[C@H](Cc1ccccc1)NC(=O)[C@H](Cc1c[nH]c2ccccc12)NC(=O)[C@H](CCC(N)=O)NC(=O)[C@@H](NC(=O)[C@H](Cc1ccccc1)NC(=O)CCCCCNC(=O)CN1CCN(CC(=O)O)CCN(CC(=O)O)CCN(CC(=O)O)CC1)C(C)C)C(=O)N[C@@H](CCC(=O)O)C(=O)N1CCC[C@H]1C(=O)N[C@@H](CC(=O)O)C(=O)N[C@H](C(=O)N[C@@H](CO)C(=O)N[C@@H](CCC(N)=O)C(=O)N[C@H](C(=O)N[C@@H](CCC(N)=O)C(=O)N[C@@H](CC(=O)O)C(=O)N1CCC[C@H]1C(=O)N[C@@H](CC(N)=O)C(=O)N[C@@H](CC(=O)O)C(=O)N[C@@H](CCC(N)=O)C(=O)N[C@@H](Cc1ccc(O)cc1)C(=O)N[C@@H](CCC(=O)O)C(=O)N1CCC[C@H]1C(=O)N[C@@H](Cc1ccccc1)C(=O)O)C(C)C)C(C)C` [^64Cu-GRIP B, metal not drawn] ({DOTA-Ahx}-FVQWFSKFLGKIEPDVSQVQDPNDQYEPF-OH): in the data set with L. monoctyogenes, the “radiotracer uptake compared to normal muscle” value is on record as “significant increase” and the “uptake in live bacterial abscesses compared to heat killed controls” value is listed as “did not impact”. For the same compound, the “autoradiography of the lungs, LPS treated” value on secreted GZMB (co-localized with GZMB and CD3 staining) was “visually higher radiotracer binding”. Besides, the “ex vivo biodistribution, LPS treated versus vehicle mice” value at secreted GZMB (either dose, including spleen and thymus) was “significantly higher in numerous tissues”. The “radiotracer accumulation in the lungs, LPS compared to vehicle” value at secreted GZMB (low (0.1 mg/kg) and high (3 mg/kg) doses of LPS, four days after instillation, ROI analysis) is “significantly higher”. Also, the “time course of uptake in treated tumors” value with subcutaneous CT26 tumors (CPI (anti-PD1 plus anti-CTLA4) treated, static PET/CT ROI analysis) is “steadily rose from 0.5 to 2-4 hours post injection”. Further, the “persistence of radioactivity in tumors” value in the data set with subcutaneous CT26 tumors (CPI treated, PET) is on record as “persisted in tumors out to 24 hours post injection”. Moreover, in the data set with subcutaneous CT26 tumors (CT26 tumor slices, co-aligned with GZMB and CD3), the “digital autoradiography signal, treated versus control tumor” value is listed as “significantly higher”. Also, the “tumoral uptake, CPI versus vehicle treated arm” value in the data set on subcutaneous CT26 tumors (PET, 2 hours post injection) is reported as “significantly higher”. For the same compound, in the data set with subcutaneous CT26 tumors (setting [2]), the “induction of radiotracer uptake in tumors, treated compared to control mice” value was about 50% and the “tracer uptake within the spleen, treated versus vehicle” value is given as “significant increase”. The “radiotracer uptake in vehicle tumors by comparison with CPI treated” value in the data set on subcutaneous CT26 tumors (vehicle treated mice, dynamic PET) is “significantly lower and did not change over time”. In addition, the “correlation of tumor to blood ratios with percent change in tumor volume” value in the data set with subcutaneous CT26 tumors (wild type mice, day 11) is recorded as “significantly correlated”. For the same compound, in the data set on subcutaneous CT26 tumors (wild type mice, day 11 compared to day 0), the “correlation of tumoral uptake with percent change in tumor volume” value was “significantly correlated”. Moreover, in data set [1], the tissue uptake per volume at 10 min is about 5 %ID/mL. For the same compound, the “correlation of tumoral uptake or tumor to blood ratio with percent changes in tumor volume” value with CT26 tumors (GZMB knockout mouse background) is on record as “neither tumoral uptake nor tumor to blood ratio of ^64Cu-GRIP B correlated”. In addition, the “post treatment changes in radiotracer uptake in tumors and spleen, CPI compared to vehicle” value with CT26 tumors (germline homozygous GZMB knockout mice, CT26 tumors) was “No significant post treatment changes”. Also, in the data set on K. pneumoniae, the “uptake in treated muscles versus normal muscle” value is “higher”. Moreover, the “uptake in live bacterial infection versus contralateral heat killed bacteria” value in the data set on K. pneumoniae (deltoid muscles) is “higher”. Moreover, in the data set with S. aureus (S. aureus), the “granzyme B response in live bacterial abscess compared to that of E. coli” value is on record as “more modest granzyme B response” and the “uptake in live bacterial abscess versus heat killed abscess” value is given as “significantly higher”. In addition, in the data set with S. aureus (S. aureus deltoid implant), the “time course of radiotracer uptake” value is “rising rapidly from 0-6 hours post injection and plateauing from 6-24 hours”. Moreover, the “uptake in treated muscles versus normal muscle” value in the data set on P. aeruginosa is listed as “higher”. Further, the “uptake in live bacterial infection versus contralateral heat killed bacteria” value in the data set with P. aeruginosa (deltoid muscles) is “higher”.
